The test relates to C. elegans. Put plainly: microbe, parasite or virus in culture. To be noted: Caenorhabditis elegans.
The mark [1] stands for this setting: 0 h, read-out: Percentage of motility inhibition 0 h, Table S2, C. elegans SS assay, 110 μM, 0 h, averages of 4 data points.
The mark [2] stands for this setting: 24 h, read-out: Percentage of motility inhibition 24 h, Table S2, C. elegans SS assay, 110 μM, 24 h, averages of 4 data points.
[3] abbreviates: 0 h, read-out: Percentage of motility inhibition 0 h.
Where [4] appears, read: 24 h, read-out: Percentage of motility inhibition 24 h.

Read-outs that look alike come from different tables or passages of the source.

Data on 45 compounds can be found in paper PMC11855827, “High-Throughput Screening of Five Compound Libraries for Anthelmintic Activity and Toxicity Leads to the Discovery of Two Flavonoid Compounds” (International Journal of Molecular Sciences, 2025).

`CC(=O)O[C@]12CCC(C(=O)O)=CC[C@]13CC[C@H]2[C@@](C)(/C=C/C=C(\C)C(=O)O)OC3=O` [Pseudolaric Acid C2]: the inhibition (usually the percentage by which the read-out fell short of the control) at 110 µM is 0% under setting [1] and 0% under setting [2].
On to `COC(=O)C1=CC[C@@]23CC[C@@H]([C@@](C)(/C=C/C=C(\C)C(=O)O)OC2=O)[C@@]3(O)CC1` [Pseudolaric Acid C], for which the inhibition at 110 µM was determined as 31% under setting [1] and 42% under setting [2].
`O=c1ccc2cc3ccoc3cc2o1` [Psoralen]: the inhibition at 110 µM was 14% under setting [3] and 14% under setting [4].
Regarding `CC(C)=C1CC[C@@H](C)CC1=O` [Pulegone], the inhibition at 110 µM runs as follows: under setting [1], 6%; under setting [2], 5%.
With `CN1CCCN=C1/C=C/c1cccs1` [Pyrantel pamoate, reference compound], the inhibition at 110 µM is 94% (0 h, read-out: Inhibition (%) 110 μM (0 h), C. elegans L4 motility, 110 μM, 0 h, mean ± SD of four experiments) and 18 ± 18% (24 h, read-out: Inhibition (%) 110 μM (24 h), C. elegans L4 motility, 110 μM, 24 h, mean ± SD of four experiments).
Consider `NC(=O)c1cnccn1` [Pyrazinamide], for which the inhibition at 110 µM was 4% under setting [1] and 13% under setting [2].
As to `Cc1ncc(COP(=O)(O)O)c(C=O)c1O` [Pyridoxal phosphate], the inhibition at 110 µM is, setting by setting: under setting [1], 11%; under setting [2], 4%.
The corresponding values for `Cc1ncc(CO)c(CO)c1O` [Pyridoxine] are 8% and 0%.
The corresponding values for `CCc1nc(N)nc(N)c1-c1ccc(Cl)cc1` [Pyrimethamine] are 35% and 2%.
The like results for `O=Cc1ccc[nH]1` [Pyrrole‐2‐carboxaldehyde] were, in that order, 0% and 6%.
With `O=c1c(O)c(-c2ccc(O)c(O)c2)oc2cc(O)c(O)c(O)c12` [Quercetagetin], the inhibition at 110 µM under setting [3] was found to be 15% and the inhibition at 110 µM under setting [4] turned out to be 10%.
Regarding `O=c1c(O)c(-c2ccc(O)c(O)c2)oc2cc(O)cc(O)c12` [Quercetin], the inhibition at 110 µM reads like this: under setting [1], 24%; under setting [2], 11%.
The like results for `O=c1c(O)c(-c2ccc(O)c(O)c2)oc2cc(O[C@@H]3O[C@H](CO)[C@@H](O)[C@H](O)[C@H]3O)cc(O)c12` [Quercimeritrin] were, in that order, 0% and 3%.
As for `C[C@@H]1O[C@@H](Oc2c(-c3ccc(O)c(O)c3)oc3cc(O)cc(O)c3c2=O)[C@H](O)[C@H](O)[C@H]1O` [Quercitrin], the inhibition at 110 µM runs as follows: under setting [1], 4%; under setting [2], 0%.
Turning to `CC1(C)CC[C@]2(C(=O)O)[C@H](O)C[C@]3(C)C(=CC[C@@H]4[C@@]5(C)CC[C@H](O)[C@@](C)(C=O)[C@@H]5CC[C@]43C)[C@@H]2C1` [Quillaic acid], the inhibition at 110 µM was found to be 14% under setting [1] and 16% under setting [2].
The like results for `C=C[C@H]1C[N@@]2CC[C@H]1C[C@@H]2[C@@H](O)c1ccnc2ccc(OC)cc12` [Quinidine] were, in that order, 23% and 3%.
The corresponding values for `O=C(O)c1cccnc1C(=O)O` [Quinolinic acid] are 0% and 0%.
The corresponding values for `O=C(CBr)N1CC([N+](=O)[O-])([N+](=O)[O-])C1` [RRx‐001] are 19% and 6%.
`O=C(Nc1ccccc1F)N[C@H]1N=C(c2ccccc2)c2ccccc2NC1=O` [RSV604]: the inhibition at 110 µM was 37% under setting [1] and 15% under setting [2].
The corresponding values for `O=C(Nc1ccc(Oc2ccc(Cl)cc2)c(Cl)c1)c1cc(I)cc(I)c1O` [Rafoxanide] are 8% and 1%.
The like results for `C=C[C@]1(C)C[C@@H](OC(=O)CS[C@@H]2C[C@H]3CC[C@@H](C2)N3C)[C@]2(C)[C@H](C)CC[C@]3(CCC(=O)[C@H]32)[C@@H](C)[C@@H]1O` [Retapamulin] were, in that order, 27% and 9%.
Consider `CC1=C(/C=C/C(C)=C/C=C/C(C)=C/C(=O)O)C(C)(C)CCC1` [Retinoic acid], for which the inhibition at 110 µM is, setting by setting: under setting [1], 18%; under setting [2], 40%.
With `CC(=O)OC/C=C(C)/C=C/C=C(C)/C=C/C1=C(C)CCCC1(C)C` [Retinyl acetate], the inhibition at 110 µM by setting is: under setting [1], 0%; under setting [2], 0%.
On to `O=c1c(O[C@@H]2OC[C@@H](O)[C@H](O)[C@H]2O)c(-c2ccc(O)c(O)c2)oc2cc(O)cc(O)c12` [Reynoutrin], for which the inhibition at 110 µM under setting [1] was found to be 0% and the inhibition at 110 µM under setting [2] came to 7%.
The like results for `COc1cc(O)c2c(=O)c(O)c(-c3ccc(O)c(O)c3)oc2c1` [Rhamnetin] were, in that order, 29% and 12%.
For the compound `CC[C@H]1CN2CC[C@]3(C(=O)Nc4ccccc43)[C@@H]2C[C@@H]1/C(=C\OC)C(=O)OC` [Rhynchophylline], the inhibition at 110 µM under setting [1] stood at 0% and the inhibition at 110 µM under setting [2] came out at 8%.
The corresponding values for `Cc1cc2nc3c(=O)[nH]c(=O)nc-3n(C[C@H](O)[C@H](O)[C@H](O)CO)c2cc1C` [Riboflavin] are 3% and 6%.
As to `CO[C@H]1/C=C/O[C@@]2(C)Oc3c(C)c(O)c4c(c3C2=O)C2=NC3(CCN(CC(C)C)CC3)NC2=C(NC(=O)/C(C)=C\C=C\[C@H](C)[C@H](O)[C@@H](C)[C@@H](O)[C@@H](C)[C@H](OC(C)=O)[C@@H]1C)C4=O` [Rifabuti n], the inhibition at 110 µM by setting is: under setting [1], 41%; under setting [2], 2%.
In the case of `CO[C@H]1/C=C/O[C@@]2(C)Oc3c(C)c(O)c4c(O)c(c(/C=N/N5CCN(C)CC5)c(O)c4c3C2=O)NC(=O)/C(C)=C\C=C\[C@H](C)[C@H](O)[C@@H](C)[C@@H](O)[C@@H](C)[C@H](OC(C)=O)[C@@H]1C` [Rifampicin], the inhibition at 110 µM was 13% under setting [1] and 4% under setting [2].
The corresponding values for `CO[C@H]1/C=C/O[C@@]2(C)Oc3c(C)c(O)c4c(O)c(c(/C=N/N5CCN(C6CCCC6)CC5)c(O)c4c3C2=O)NC(=O)/C(C)=C\C=C\[C@H](C)[C@H](O)[C@@H](C)[C@@H](O)[C@@H](C)[C@H](OC(C)=O)[C@@H]1C` [Rifapen tine] are 9% and 13%.
`CO[C@H]1/C=C/O[C@@]2(C)Oc3c(C)c(O)c4c(O)c(c5c(nc6cc(C)ccn65)c4c3C2=O)NC(=O)/C(C)=C\C=C\[C@H](C)[C@H](O)[C@@H](C)[C@@H](O)[C@@H](C)[C@H](OC(C)=O)[C@@H]1C` [Rifaximin]: the inhibition at 110 µM was determined as 7% under setting [1] and 1% under setting [2].
Turning to `Cc1cc(/C=C/C#N)cc(C)c1Nc1ccnc(Nc2ccc(C#N)cc2)n1` [Rilpivirine], the inhibition at 110 µM by setting is: under setting [1], 32%; under setting [2], 20%.
With `CC(C)c1nc(CN(C)C(=O)N[C@H](C(=O)N[C@@H](Cc2ccccc2)C[C@H](O)[C@H](Cc2ccccc2)NC(=O)OCc2cncs2)C(C)C)cs1` [Ritonavir], the inhibition at 110 µM was 2% under setting [1] and 0% under setting [2].
`O=c1c(O)c(-c2cc(O)c(O)c(O)c2)oc2cc(O)ccc12` [Robinetin]: the inhibition at 110 µM was determined as 39% under setting [1] and 7% under setting [2].
The like results for `CC1OC(OCC2OC(Oc3c(-c4ccc(O)cc4)oc4cc(OC5OC(C)C(O)C(O)C5O)cc(O)c4c3=O)C(O)C(O)C2O)C(O)C(O)C1O` (stereo not drawn) [Robinin] were, in that order, 31% and 8%.
The like results for `COc1c2ccoc2nc2c(O)cccc12` [Robustine] were, in that order, 16% and 7%.
The like results for `CN1CCc2cc3c(c4c2C1Cc1ccccc1-4)OCO3` (stereo not drawn) [Roemerine] were, in that order, 0% and 0%.
Take `Cn1c([N+](=O)[O-])cnc1COC(N)=O` [Ronidazole]: the inhibition at 110 µM by setting is: under setting [1], 9%; under setting [2], 0%.
In the case of `C[C@@H]1CC[C@]2(C(=O)O)CC[C@]3(C)C(=CC[C@@H]4[C@@]5(C)CC[C@H](O)[C@@](C)(CO)[C@@H]5CC[C@]43C)[C@@H]2[C@]1(C)O` [Rotundic acid], the inhibition at 110 µM under setting [1] amounted to 24% and the inhibition at 110 µM under setting [2] is 45%.
The corresponding values for `CC[C@H]1OC(=O)[C@H](C)[C@@H](O[C@H]2C[C@@](C)(OC)[C@@H](O)[C@H](C)O2)[C@H](C)[C@@H](O[C@@H]2O[C@H](C)C[C@H](N(C)C)[C@H]2O)[C@](C)(O)C[C@@H](C)/C(=N\OCOCCOC)[C@H](C)[C@@H](O)[C@]1(C)O` [Roxithromycin] are 22% and 4%.
The like results for `CC[C@@]1(O)C(=O)OCc2c1cc1n(c2=O)Cc2cc3c([N+](=O)[O-])cccc3nc2-1` [Rubitecan] were, in that order, 5% and 0%.
The corresponding values for `C=C1C[C@@]23CC[C@H]4[C@@](C)(CCC[C@@]4(C)C(=O)O[C@@H]4O[C@H](CO)[C@@H](O)[C@H](O)[C@H]4O)[C@@H]2CC[C@]1(O[C@@H]1O[C@H](CO)[C@@H](O)[C@H](O)[C@H]1O)C3` [Rubusoside] are 0% and 18%.
On to `O=c1c2ccccc2nc2n1CCc1c-2[nH]c2ccccc12` [Rutaecarpine], for which the inhibition at 110 µM is, setting by setting: under setting [1], 0%; under setting [2], 24%.
The corresponding values for `C[C@@H]1O[C@@H](OC[C@H]2O[C@@H](Oc3c(-c4ccc(O)c(O)c4)oc4cc(O)cc(O)c4c3=O)[C@H](O)[C@@H](O)[C@@H]2O)[C@H](O)[C@H](O)[C@H]1O` [Rutin] are 4% and 0%.
On to `C=C1CCC2(C(C)C)CC12` (stereo not drawn) [Sabinene], for which the inhibition at 110 µM runs as follows: under setting [1], 0%; under setting [2], 20%.
